# Results from US5221692A, “Ether linked and relatively nonpungent analogues of N-nonanoyl vanillylamide” (National Science Council, priority 1991, dated 1993).
# Like-named read-outs stand apart in the source and are kept apart here.
# Assays:
# [1] = tested on: right eye of male Wistar rats; assay: Wiping test (potency of pungency); format: in vivo
# Protocol: The wiping test was performed as described by Szolcsanyl and Jansco-Gabor, Arzneim.-Forsch./Drug Res. 25, 1877 (1975). Briefly, solutions of CAP and its analogues were prepared as described above in successive tenfold dilutions. Each dilution was dropped into the right eye (vehicle being administered to the left eye as negative control) of male Wistar rats weighing 180-250 g, and the total number of protective movements (scratching, wiping of the eye with the foreleg) was counted for 30 min. Each concentration was applied to a total of 6 rats, and a dose-response curve were obtained form the mean value of each group. […] On the basis of the MPP values thus obtained, RPP (relative pain-producing potency) values were determined with respect to the pain-producing potency of CAP, which was taken as 1000.
# ^a) Methods are described by Szolcsanyi & JanscoGabor.
# [2] = tested on: acetic acid-induced writhing in mice; assay: Acetic acid-induced writhing (antinociceptive test); format: in vivo, male mice (ddk strain); conditions: for ED50: Mus musculus, ip, 0.5 h, read-out: ED50 (95% C.L.); for Potency ratio: indomethacin 1.00
# Protocol: Evaluation of antinociceptive effects Following the method described by Koster et al., Fed. proc. 18, 412 (1959), antinociceptive tests were carried out in male mice after intraperitoneal administration of NVA and its analogues. Briefly, four groups of eight male mice (ddk strain) weighing 18-22 g were brought to the laboratory on the day prior to study, and housed overnight with free access to food and water. Solutions of NVA and its analogues, as well as indomethacin were made up to 10% ethanol, 10% […] 80% saline, and then diluted with saline to the required concentrations. The test solution was administered by intraperitoneal injection with single dose of 0.2 mL (vehicle administered as control). 20 min after injection, 0.2 mL of 0.7% acetic acid was injected intraperitoneally to induce writhing. Following injection, the mice were placed […] acid injection, a writhe being defined as a sequence of arching of the back, followed by pelvic rotation and hind limb extension.
# ^a) Writhes were counted for 30 min after injection of acetic acid
# ^b) ED50 and 95% confidence limits were calculated by the
# Litchfield and Wilcoxon method.
# [3] = oral; cited from earlier work
# [4] = relative to capsaicin, taken as 1000
# [5] = intraperitoneal, mice, acetic acid 20 min after injection, writhes counted for 30 min, 95% confidence limits, Litchfield and Wilcoxon
SMILES,"ED50 [2, 5]","Potency ratio ([2]; intraperitoneal, mice)",also measured
"COc1cc(CNC(=O)CCCC/C=C/C(C)C)ccc1O [Capsaicin, trans-8-methyl-N-vanillyl-6-nonenamide]",0.07 mg/kg,15.71,"MPP (Moderate pain-producing potency) ([1]; concentration inducing 32 scratchings, eye instillation, rats, 30 min): 90 µg/mL; median response (number of scratchings) ([1]; counted for 30 min, eye instillation, rats): 32 scratchings; RPP (Relative pain-producing potency) [1, 4]: 1000"
"CCCCCCCCC(=O)NCc1ccc(OC(=O)CCC(=O)O)c(OC)c1 [Compound 3, N-(4-o-succinicacid-3-methoxybenzyl)-nonamide]",0.06 mg/kg,18.33,"pungency (in words) ([1]; rat, in vivo): nearly equivalent to that of NVA and CAP; MPP (Moderate pain-producing potency) ([1]; rat, in vivo, 30 min): 270 µg/mL; RPP (Relative pain-producing potency) ([1]; rat, in vivo, 30 min): 333"
"CCCCCCCCC(=O)NCc1ccc(OCC(O)CO)c(OC)c1 (stereo not shown) [Compound 4, N-(4-o-glycerol-3-methoxybenzyl)-nonamide]",0.09 mg/kg,12.22,–
CCCCCCCCC(=O)NCc1ccc(OCC(=O)O)c(OC)c1 [Compound 5],0.04 mg/kg,27.50,"antinociceptive effect (in words) ([2]; intraperitoneal, mice): the most potent in its antinociceptive effect"
"CCCCCCCCC(=O)NCc1ccc(OCCO)c(OC)c1 [Compound 6, N-(4-o-glycol-3-methoxybenzyl)-nonamide]",0.14 mg/kg,7.86,–
"COc1ccc2c(c1)c(CC(=O)O)c(C)n2C(=O)c1ccc(Cl)cc1 [Indomethacin, reference compound]",1.1 mg/kg,–,–
"CCCCCCCCC(=O)NCc1ccc(O)c(OC)c1 [NVA, N-nonanoyl vanillylamide]",–,13.75,"RPP (Relative pain-producing potency) [1, 4]: 409; ED50 [2]: 0.08 mg/kg"
"CCCCCCCCC=CCCCCCCCC(=O)NCc1ccc(O)c(OC)c1 [olvanil, N-vanillyl-9-octadecenamide]",–,–,ED50 [3]: 170 mg/kg
